# From ChEMBL document CHEMBL5528023, “Discovery of a CB2 and 5-HT1A receptor dual agonist for the treatment of depression and anxiety” (Eur J Med Chem, 2024)
# Tests used:
# Cannabinoid receptor 1 [1] = target: T1, Cannabinoid receptor 1 (Homo sapiens, UniProt P21554); assay: Antagonist activity at human CB1 receptor expressed in CHO cells assessed as inhibition of forskolin-stimulated cAMP formation preincubated with compound for 10 mins followed by forskolin induction and measured after 30 mins by HTRF analysis; format: functional, cell-based
# Cannabinoid receptor 1 [2] = target: T1, Cannabinoid receptor 1; assay: Antagonist activity at human CB1 receptor expressed in CHO cells assessed as inhibition of forskolin-stimulated cAMP formation by measuring maximum inhibition preincubated with compound for 10 mins followed by forskolin induction and measured after 30 mins by HTRF analysis relative to control; format: functional, cell-based; settings: filed as antagonist, time 40.0 min
# Cannabinoid receptor 2 [3] = target: T2, Cannabinoid receptor 2 (Homo sapiens, UniProt P34972); assay: Agonist activity at human CB2 receptor expressed in CHO cells assessed as forskolin-stimulated cAMP formation preincubated with compound for 10 mins followed by forskolin induction and measured after 30 mins by HTRF analysis; format: functional, cell-based
# [4] = Solubility of compound in phosphate buffer at pH 6.8 by HPLC analysis; format: physicochemical
# [5] = Half life in ICR mouse at 25 mg/kg, po measured upto 8 hrs by LC-MS/MS analysis; format: ADME, organism-based; settings: in vivo
# [6] = AUClast in ICR mouse at 25 mg/kg, po measured upto 8 hrs by LC-MS/MS analysis; format: ADME, organism-based; settings: in vivo
# [7] = Cmax in ICR mouse at 25 mg/kg, po measured upto 8 hrs by LC-MS/MS analysis; format: ADME, organism-based; settings: in vivo
# Cannabinoid receptor 2 [8] = target: T2, Cannabinoid receptor 2; assay: Partial agonist activity at human CB2 receptor expressed in CHO cells assessed as forskolin-stimulated cAMP formation preincubated with compound for 10 mins followed by forskolin induction and measured after 30 mins by HTRF analysis; format: functional, cell-based
# Cannabinoid receptor 2 [9] = target: T2, Cannabinoid receptor 2; assay: Partial agonist activity at human CB2 receptor expressed in CHO cells assessed as forskolin-stimulated cAMP formation preincubated with compound for 10 mins followed by forskolin induction and measured after 30 mins by HTRF analysis relative to control; format: functional, cell-based; settings: filed as partial agonist, time 40.0 min
# [10] = Tmax in ICR mouse at 25 mg/kg, po measured upto 8 hrs by LC-MS/MS analysis; format: ADME, organism-based; settings: in vivo
# [11] = target: T3, 5-hydroxytryptamine receptor 1A (Homo sapiens, UniProt P08908); assay: Agonist activity at human 5HT1A receptor expressed in HEK293 cells assessed as forskolin-stimulated cAMP formation preincubated with compound for 10 mins followed by forskolin induction and measured after 30 mins by HTRF analysis; format: functional, cell-based
# T3 sequence (P08908 whole entry): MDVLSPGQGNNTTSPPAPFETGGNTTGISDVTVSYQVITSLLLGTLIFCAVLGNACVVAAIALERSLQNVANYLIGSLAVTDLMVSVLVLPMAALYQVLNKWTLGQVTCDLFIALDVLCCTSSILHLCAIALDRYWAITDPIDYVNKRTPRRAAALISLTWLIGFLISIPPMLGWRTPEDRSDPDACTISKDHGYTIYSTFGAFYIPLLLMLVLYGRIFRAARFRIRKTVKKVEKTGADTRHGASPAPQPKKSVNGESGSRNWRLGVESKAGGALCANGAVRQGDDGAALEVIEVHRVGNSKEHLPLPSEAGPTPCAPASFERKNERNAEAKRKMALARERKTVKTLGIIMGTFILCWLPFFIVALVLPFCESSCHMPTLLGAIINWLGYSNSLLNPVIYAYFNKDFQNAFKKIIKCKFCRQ
# [12] = target: T4, 5-hydroxytryptamine receptor 1A (Homo sapiens) (UniProt P08908); assay: Agonist activity at human 5HT1A receptor expressed in HEK293 cells assessed as forskolin-stimulated cAMP formation preincubated with compound for 10 mins followed by forskolin induction and measured after 30 mins by HTRF analysis relative to control; format: functional, cell-based; settings: filed as agonist, time 40.0 min
# T4 sequence (whole entry): T3 sequence (P08908 whole entry)
# [13] = Cmax in ICR mouse brain at 25 mg/kg, po measured upto 8 hrs by LC-MS/MS analysis; format: ADME, organism-based
# T1 sequence (P21554 whole entry): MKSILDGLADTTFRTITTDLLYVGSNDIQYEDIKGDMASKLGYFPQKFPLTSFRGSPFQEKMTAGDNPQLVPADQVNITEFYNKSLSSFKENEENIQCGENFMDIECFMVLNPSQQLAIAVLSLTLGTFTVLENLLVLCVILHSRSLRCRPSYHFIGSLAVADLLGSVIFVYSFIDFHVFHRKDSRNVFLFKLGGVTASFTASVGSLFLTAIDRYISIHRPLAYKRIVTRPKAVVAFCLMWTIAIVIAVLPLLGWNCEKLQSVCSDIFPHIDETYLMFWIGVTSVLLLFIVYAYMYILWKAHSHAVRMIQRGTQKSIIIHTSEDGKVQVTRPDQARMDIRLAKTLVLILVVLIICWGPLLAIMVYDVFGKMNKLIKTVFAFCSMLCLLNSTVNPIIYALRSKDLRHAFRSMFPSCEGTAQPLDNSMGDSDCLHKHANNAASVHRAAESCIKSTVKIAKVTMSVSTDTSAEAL
# T2 sequence (P34972 whole entry): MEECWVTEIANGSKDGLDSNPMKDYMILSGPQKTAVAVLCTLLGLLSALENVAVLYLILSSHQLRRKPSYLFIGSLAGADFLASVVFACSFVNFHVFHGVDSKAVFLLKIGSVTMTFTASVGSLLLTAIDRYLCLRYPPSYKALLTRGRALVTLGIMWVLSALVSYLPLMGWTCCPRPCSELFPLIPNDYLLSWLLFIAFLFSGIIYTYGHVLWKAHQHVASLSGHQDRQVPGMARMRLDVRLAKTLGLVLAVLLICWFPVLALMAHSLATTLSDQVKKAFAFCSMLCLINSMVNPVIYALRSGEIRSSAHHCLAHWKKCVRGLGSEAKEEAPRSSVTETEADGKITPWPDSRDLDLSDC
SMILES,IC50 (Cannabinoid receptor 1 [1]) [µM],Imax (Cannabinoid receptor 1 [2]) [%],EC50 (Cannabinoid receptor 2 [3]) [µM],solubility [4] [µg/mL],half-life [5] [h],AUC(0-t) at 8 h [6] [µg·h/mL],Cmax [7] [µg/mL],EC50 (Cannabinoid receptor 2 [8]) [µM],Emax (Cannabinoid receptor 2 [9]) [%],Tmax [10] [h],EC50 [11] [µM],Emax [12] [%],Cmax [13] [ng/g]
C=C(C)[C@@H]1CCC(C)=C[C@H]1c1c(O)cc(-c2ccccn2)cc1O,6.3,92.1,> 0.01,,,,,,,,,,
C=Cc1cc(O)c([C@@H]2C=C(C)CC[C@H]2C(=C)C)c(O)c1,6.4,83.3,> 0.01,,,,,,,,,,
C=C(C)[C@@H]1CCC(C)=C[C@H]1c1c(O)cc(C2CC2)cc1O,4.4,94,> 0.01,,,,,,,,,,
C=C(C)[C@@H]1CCC(C)=C[C@H]1c1c(O)cc(CCCCC)c(C(N)=O)c1O,2.7,86.3,> 0.01,0.6,,,,,,,,,
C=C(C)[C@@H]1CCC(C)=C[C@H]1c1c(O)cc(C2(CCCC)CC2)c(C(=O)N(C)C)c1O,2.7,87.2,,,1.7,0.115,0.0627,0.755,47.2,0.7,,,
C=C(C)[C@@H]1CCC(C)=C[C@H]1c1c(O)cc(C)cc1O,6.3,115,> 10,,,,,,,,,,
C=C(C)[C@@H]1CCC(C)=C[C@H]1c1c(O)cc(CCCCC)cc1O [CANNABIDIOL],,88.3,,0.04,4.3,0.289,0.145,,,0.7,4.2,64,239
C=C(C)[C@@H]1CCC(C)=C[C@H]1c1c(O)cc(CCCCC)c(C(=O)N(C)C)c1O,6.9,88.9,,3,1.7,0.0263,0.0222,1.01,73.6,0.4,,,
C=C(C)[C@@H]1CCC(C)=C[C@H]1c1c(O)cc(C(C)(C)CCCC)c(C(=O)NC)c1O,4.4,104,> 10,,,,,,,,,,
C=C(C)[C@@H]1CCC(C)=C[C@H]1c1c(O)cc(C2CC2)c(C(=O)NC)c1O,> 10,,> 10,,,,,,,,,,
C=C(C)[C@@H]1CCC(C)=C[C@H]1c1c(O)cc(C2CCCCC2)cc1O,,,,,2.7,0.616,0.216,0.0552,62.7,0.8,,,
C=C(C)[C@@H]1CCC(C)=C[C@H]1c1c(O)cc(C2CCCC2)cc1O,,,,,1.8,1.08,0.514,0.113,76.3,1,,,
C=C(C)[C@@H]1CCC(C)=C[C@H]1c1c(O)cc(C#CC)cc1O,3.3,96.7,> 0.01,,,,,,,,,,
